Measurements reported in US8557830B2, “RAF kinase modulators and methods of use” (Amgen Inc., priority 2007, dated 2013).
pIC50: −log10 of the molar value. Like-named read-outs stand apart in the source and are kept apart here.

How the values were obtained:
recombinant HuBraf V600E = recombinant HuBraf V600E (Homo sapiens, UniProt P15056, V600E); test: B-raf Homogenous Time Resolved Fluorescent (HTRF) kinase assay; format: biochemical; details: human mutant B-raf V600E, substrate MEK1, 10 uM ATP, read-out: HTRF Enzyme assay Data IC50
Sequence of recombinant HuBraf V600E (P15056 whole entry V600E): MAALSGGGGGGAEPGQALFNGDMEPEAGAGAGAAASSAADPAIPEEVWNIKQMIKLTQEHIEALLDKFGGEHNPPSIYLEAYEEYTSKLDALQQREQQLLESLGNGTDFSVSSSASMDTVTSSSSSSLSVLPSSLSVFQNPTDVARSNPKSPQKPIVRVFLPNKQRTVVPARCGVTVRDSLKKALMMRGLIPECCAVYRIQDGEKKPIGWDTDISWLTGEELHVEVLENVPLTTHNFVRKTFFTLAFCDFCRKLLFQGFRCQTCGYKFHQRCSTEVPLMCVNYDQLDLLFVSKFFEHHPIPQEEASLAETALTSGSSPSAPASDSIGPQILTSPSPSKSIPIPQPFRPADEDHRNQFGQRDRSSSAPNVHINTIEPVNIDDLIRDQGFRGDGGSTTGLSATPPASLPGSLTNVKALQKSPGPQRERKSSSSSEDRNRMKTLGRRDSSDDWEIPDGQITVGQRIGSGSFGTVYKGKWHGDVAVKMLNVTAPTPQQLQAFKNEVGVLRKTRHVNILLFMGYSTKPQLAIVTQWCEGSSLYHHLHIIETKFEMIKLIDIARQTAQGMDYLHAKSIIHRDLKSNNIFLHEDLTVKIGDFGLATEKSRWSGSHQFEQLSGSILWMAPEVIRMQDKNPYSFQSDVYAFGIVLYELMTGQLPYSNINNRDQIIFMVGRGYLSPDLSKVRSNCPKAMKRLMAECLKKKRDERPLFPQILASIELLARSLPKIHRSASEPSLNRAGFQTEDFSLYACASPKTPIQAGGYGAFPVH
Method: B-raf-Homogenous Time Resolved Fluorescent (HTRF) Kinase Assay
The final concentration of the kinase reaction buffer is 50 mM Tris-HCL pH 7.5, 10 mM MgCl2, 0.5% glucose, 0.5 mM DTT, 0.01% BSA. […] The detection reaction proceeds for one hour and is read on a RubyStar (BMG Labtech) counter. IC50s for the test compounds are generated using Excel-XLfit software.

V600E mutant B-raf = molecular target: T1, V600E mutant B-raf (Homo sapiens, UniProt P15056, V600E); test: B-raf cell-based assay (ratio of phospho-ERK1/2 to total ERK1/2 in A375 cells); details: A375 human melanoma cells, P-ERK/total ERK
T1 construct: A375 cells, a human melanoma cell line having the V600E mutant B-raf is used in this assay; endogenous in cells; host or cells: A375 human melanoma cells
T1 sequence (P15056 whole entry V600E): as above
Method: A cell-based assay was optimized to assay the ability of compounds to inhibit B-raf activity in a whole cell context. […] The cell-based assay quantifies the ratio of phospho-ERK1/2 to total ERK1/2 and can thereby assay the cellular inhibition of B-raf kinase activity. A375 cells are plated into 96 well plates and grown to confluence. The cells are then changed into starve media (DMEM/0.1% BSA) for 60 minutes. Compounds in DMSO dose curves are then diluted in starve media and added to cells. […] After a 60 minute incubation the cells are fixed for 20 minutes at RT in 4% formaldehyde with 0.1% Triton X-100, protease and phosphatase inhibitors in PBS. The cells are washed four times in PBS then blocked for 60 minutes using a one to one mix of Odyssey blocking buffer (Li-Cor Biosciences, Inc) and PBS. Primary antibodies (rabbit anti-phospho p42/p44 MAPK (P-ERK1/2) from Cell Signaling Technology and mouse anti-ERK2 from Santa Cruz Biotechnology) are diluted in blocking buffer, added to the cells and incubated overnight at 4° C. The cells are then washed four times in PBS/0.1% Tween-20. Secondary antibodies (anti-mouse IRDye 800CW from Rockland, Inc and anti-rabbit AlexaFlour680 from Molecular Probes) are diluted in blocking buffer/0.5% Tween and incubated on cells for 60 minutes. After 4 washes in PBS/0.1% Tween-20 the microplate is scanned on an Odyssey Infrared Imager (Li-Cor Bioscience) which can read the signal given by the two secondary antibodies on their respective channels. The ratio of P-ERK/total ERK is determined and IC50s generated using Excel-XLfit software.

Compound | pIC50 (recombinant HuBraf V600E; Table I) | pIC50 (V600E mutant B-raf; Table I) | pIC50 (recombinant HuBraf V600E; Table II) | pIC50 (V600E mutant B-raf; Table II)
Cc1ccc2c(Nc3ccc(Cl)cc3)nccc2c1Nc1ncccc1-c1ncnc2cc[nH]c12 [Example 62, N-1-(4-chlorophenyl)-6-methyl-N-5-(3-(5H-pyrrolo[3,2-d]pyrimidin-4-yl)-2-pyridinyl)-1,5-isoquinolinediamine] | 7.70 | 6.55 |  | 
Cc1ccc2c(Nc3ccc4ncsc4c3)nccc2c1Nc1ncccc1-c1ncnc2[nH]ccc12 [Example 49, N-1-1,3-benzothiazol-6-yl-6-methyl-N-5-(3-(7H-pyrrolo[2,3-d]pyrimidin-4-yl)-2-pyridinyl)-1,5-isoquinolinediamine] | 8.15 | 8.00 |  | 
Cc1ccc(C(F)(F)F)cc1Nc1nccc2c(Nc3nc(Cl)ncc3-c3ncnc4[nH]ccc34)c(C)ccc12 [Example 55, N-5-(2-chloro-5-(7H-pyrrolo[2,3-d]pyrimidin-4-yl)-4-pyrimidinyl)-6-methyl-N-1-(2-methyl-5-(trifluoromethyl)phenyl)-1,5-isoquinolinediamine] | 7.82 | 7.07 |  | 
Cc1ccc2c(Nc3ccc4c(c3)C(F)(F)C(=O)N4C)nccc2c1Nc1ncccc1-c1ncnc2[nH]ccc12 [Example 45, 3,3-difluoro-1-methyl-5-((6-methyl-5-((3-(7H-pyrrolo[2,3-d]pyrimidin-4-yl)-2-pyridinyl)amino)-1-isoquinolinyl)amino)-1,3-dihydro-2H-indol-2-one] | 8.10 | 7.82 |  | 
C#Cc1cccc(Nc2nccc3c(Nc4ncccc4-c4ncnc5[nH]ccc45)c(C)ccc23)c1 [Example 43, N-1-(3-ethynylphenyl)-6-methyl-N~5~-(3-(7H-pyrrolo[2,3-d]pyrimidin-4-yl)-2-pyridinyl)-1,5-isoquinolinediamine] | 8.52 | 8.00 |  | 
Cc1ccc2c(Nc3ccc(C#N)cc3)ncnc2c1Nc1ncccc1-c1ncnc2[nH]cnc12 [Example 61, 4-((7-methyl-8-((3-(9H-purin-6-yl)-2-pyridinyl)amino)-4-quinazolinyl)amino)benzonitrile] | 8.70 | 6.99 |  | 
Cc1ccc2c(Nc3ccc(C#N)cc3)nccc2c1Nc1ncccc1-c1ncnc2[nH]cnc12 [Example 57, 4-((6-methyl-5-((3-(9H-purin-6-yl)-2-pyridinyl)amino)-1-isoquinolinyl)amino)benzonitrile] | 9.22 | 8.40 |  | 
Cc1ccc2c(Nc3ccc4c(c3)OC(F)(F)O4)nccc2c1Nc1ncccc1-c1ncnc2[nH]ccc12 [Example 44, N-1-(2,2-difluoro-1,3-benzodioxol-5-yl)-6-methyl-N-5-(3-(7H-pyrrolo[2,3-d]pyrimidin-4-yl)-2-pyridinyl)-1,5-isoquinolinediamine] | 7.89 | 7.60 |  | 
Cc1ccc2c(Nc3ccc4c(c3)C(F)(F)C(=O)N4)nccc2c1Nc1ncccc1-c1ncnc2[nH]ccc12 [Example 46, 3,3-difluoro-5-((6-methyl-5-((3-(7H-pyrrolo[2,3-d]pyrimidin-4-yl)-2-pyridinyl)amino)-1-isoquinolinyl)amino)-1,3-dihydro-2H-indol-2-one] | 7.82 | 7.60 |  | 
Cc1ccc2c(Nc3ccc4c(c3)C(F)(F)OC(F)(F)O4)nccc2c1Nc1ncccc1-c1ncnc2[nH]ccc12 [Example 54, 6-methyl-N-5-(3-(7H-pyrrolo[2,3-d]pyrimidin-4-yl)-2-pyridinyl)-N-1-(2,2,4,4-tetrafluoro-4H-1,3-benzodioxin-6-yl)-1,5-isoquinolinediamine] | 6.69 | 7.00 |  | 
Cc1ccc(OC(F)(F)F)cc1Nc1nccc2c(Nc3ncccc3-c3ncnc4[nH]ccc34)c(C)ccc12 [Example 41, 6-methyl-N-1-(2-methyl-5-((trifluoromethyl)oxy)phenyl)-N-5-(3-(7H-pyrrolo[2,3-d]pyrimidin-4-yl)-2-pyridinyl)-1,5-isoquinolinediamine] | 7.46 | 6.97 |  | 
Cc1ccc2c(Nc3ccc(C#N)cc3)nccc2c1Nc1ncccc1-c1ncnc2[nH]ccc12 [Example 40, 4-((6-methyl-5-((3-(7H-pyrrolo[2,3-d]pyrimidin-4-yl)-2-pyridinyl)amino)-1-isoquinolinyl)amino)benzonitrile] | 8.52 | 7.64 |  | 
Cc1ccc2c(Nc3ccc4c(c3)NC(=O)C4)nccc2c1Nc1ncccc1-c1ncnc2[nH]ccc12 [Example 50, 6-((6-methyl-5-((3-(7H-pyrrolo[2,3-d]pyrimidin-4-yl)-2-pyridinyl)amino)-1-isoquinolinyl)amino)-1,3-dihydro-2H-indol-2-one] | 7.92 | 7.35 |  | 
Cc1ccc2c(Nc3ccc(C#N)cc3)ncnc2c1Nc1ncccc1-c1ncnc2[nH]ccc12 [Example 60, 4-((7-methyl-8-((3-(7H-pyrrolo[2,3-d]pyrimidin-4-yl)-2-pyridinyl)amino)-4-quinazolinyl)amino)benzonitrile] | 8.00 | 6.63 |  | 

More lines, now with the values ahead:

pIC50 (recombinant HuBraf V600E; Table I) | pIC50 (V600E mutant B-raf; Table I) | pIC50 (recombinant HuBraf V600E; Table II) | pIC50 (V600E mutant B-raf; Table II) | Compound
7.59 | 6.00 |  |  | Cc1ccc2c(Nc3ccc(Cl)cc3)nccc2c1Oc1ncccc1-c1ncnc2[nH]cnc12 [Example 68, N-(4-chlorophenyl)-6-methyl-5-((3-(9H-purin-6-yl)-2-pyridinyl)oxy)-1-isoquinolinamine]
 |  | 8.10 | 8.40 | Cc1ccc2c(Nc3ccc4c(c3)OC(F)(F)O4)ncnc2c1Nc1ncccc1-c1ncnc2[nH]cnc12 [Example 74, N-4-(2,2-difluoro-1,3-benzodioxol-5-yl)-7-methyl-N-8-(3-(9H-purin-6-yl)-2-pyridinyl)-4,8-quinazolinediamine]
 |  | 7.70 | 7.74 | Cc1ccc2c(Nc3ccc4c(c3)OC(F)(F)O4)nccc2c1Nc1ncccc1-c1ncnc2[nH]ncc12 [Example 72, N-1-(2,2-difluoro-1,3-benzodioxol-5-yl)-6-methyl-N-5-(3-(1H-pyrazolo[3,4-d]pyrimidin-4-yl)-2-pyridinyl)-1,5-isoquinolinediamine]
 |  | 7.59 | 7.48 | Cc1ccc2c(Nc3cccc(C(F)(F)F)c3)ncnc2c1Nc1ncccc1-c1ncnc2[nH]cnc12 [Example 73, 7-methyl-N-8-(3-(9H-purin-6-yl)-2-pyridinyl)-N-4-(3-(trifluoromethyl)phenyl)-4,8-quinazolinediamine]
 |  | 7.48 | 7.48 | Cc1ccc2c(N[C@H](C)c3ccc(Cl)cc3)nccc2c1Nc1ncccc1-c1ncnc2[nH]cnc12 [Example 78, N-1-((1R)-1-(4-chlorophenyl)ethyl)-6-methyl-N-5-(3-(9H-purin-6-yl)-2-pyridinyl)-1,5-isoquinolinediamine]
7.60 | 7.55 |  |  | COc1ccc(Nc2nccc3c(Nc4ncccc4-c4ncnc5[nH]ncc45)c(C)ccc23)cc1C(F)(F)F [Example 66, N5-(3-(1H-pyrazolo[3,4-d]pyrimidin-4-yl)pyridin-2-yl)-N1-(4-methoxy-3-(trifluoromethyl)phenyl)-6-methylisoquinoline-1,5-diamine]
6.52 | 6.95 |  |  | Cc1ccc2c(Nc3ccc4c(c3)OC(F)(F)O4)nccc2c1Nc1ncccc1-c1ncnc2cc[nH]c12 [Example 64, N-1-(2,2-difluoro-1,3-benzodioxol-5-yl)-6-methyl-N-5-(3-(5H-pyrrolo[3,2-d]pyrimidin-4-yl)-2-pyridinyl)-1,5-isoquinolinediamine]
 |  | 8.70 | 8.40 | Cc1ccc2c(Nc3ccc(Cl)cc3)nccc2c1Nc1ncncc1-c1ncnc2[nH]cnc12 [Example 69, N-1-(4-chlorophenyl)-6-methyl-N-5-(5-(9H-purin-6-yl)-4-pyrimidinyl)-1,5-isoquinolinediamine]
8.30 | 8.52 |  |  | Cc1ccc2c(Nc3ccc(Cl)cc3)nccc2c1Nc1ncccc1-c1ncnc2[nH]ncc12 [Example 67, N5-(3-(1H-pyrazolo[3,4-d]pyrimidin-4-yl)pyridin-2-yl)-N1-(4-chlorophenyl)-6-methylisoquinoline-1,5-diamine]
8.10 | 8.10 |  |  | Cc1ccc2c(Nc3cccc(C(F)(F)F)c3)nccc2c1Nc1ncccc1-c1ncnc2[nH]ncc12 [Example 65, 6-methyl-N-5-(3-(1H-pyrazolo[3,4-d]pyrimidin-4-yl)-2-pyridinyl)-N-1-(3-(trifluoromethyl)phenyl)-1,5-isoquinolinediamine]
 |  | 8.40 | 7.92 | Cc1ccc2c(Nc3ccc(C#N)cc3)nccc2c1Nc1ncccc1-c1ncnc2[nH]ncc12 [Example 71, 4-((6-methyl-5-((3-(1H-pyrazolo[3,4-d]pyrimidin-4-yl)-2-pyridinyl)amino)-1-isoquinolinyl)amino)benzonitrile]
